Measurements taken from ChEMBL document CHEMBL5385948, “Glucose Uptake-Stimulating Metabolites from Aerial Parts of Centaurea sicula” (J Nat Prod, 2024).
Calls of active or inactive are those of the source. No cut-off for these calls is given here.

Tests used:
HEK293 [1] = assay: Induction of glucose uptake in HEK293 cells assessed as increase in 2-NBDG uptake at 3 uM incubated for 48 hrs followed by treated with 2-DG in presence of EDTA by fluorescence assay; type: functional, cell-based; conditions: Homo sapiens
HEK293 [2] = assay: Induction of glucose uptake in HEK293 cells assessed as increase in 2-NBDG uptake at 3 uM incubated for 48 hrs followed by treated with 2-DG by fluorescence assay; type: functional, cell-based; conditions: Homo sapiens

C/C1=C\CC/C(CO)=C/[C@@H](O)[C@H]2[C@H](C1)OC(=O)[C@H]2C
Activity (HEK293 [1]): inactive | Activity (HEK293 [2]): Active

C=C(C(=O)O[C@H]1C/C(C)=C/CC/C(CO)=C/[C@H]2OC(=O)[C@@H](C)[C@H]12)[C@@H](O)CO
Activity (HEK293 [1]): Active | Activity (HEK293 [2]): Active

COc1cc([C@@H]2OC[C@H]3C(=O)OC[C@H]32)ccc1O
Activity (HEK293 [1]): inactive | Activity (HEK293 [2]): Active

CC1(C)C(=O)O[C@]2(C)C=C1C[C@H](O)C2
Activity (HEK293 [1]): Active | Activity (HEK293 [2]): Active
